# Data reported in article PMC9866218, “Characterization and Chemical Synthesis of Cm39 (α-KTx 4.8): A Scorpion Toxin That Inhibits Voltage-Gated K^+ Channel KV1.2 and Small- and Intermediate-Conductance Ca^2+-Activated K^+ Channels KCa2.2 and KCa3.1” (Toxins, 2023).
# Bridge positions count the residues as written; N and C are the ends. Ends that are not written are not given here.
# Key:
# hKV1.1 = assay type: cell-based, human
# Text: (§1) We, therefore, aimed at testing the pharmacological activity of sCm39 on a battery of various potassium and sodium ion channels. Among the tested channels were six members of human voltage-gated K^+ (hKV) channels from Shaker family, hKV1.1-hKV1.6 (Figure 3A–F) and three members of Ca^2+-activated potassium channel; hKCa2.2 (SK2, Figure 3I), the small-conductance Ca^2+-activated channel; hKCa3.1 (IKCa1, SK4. Figure 3J), the intermediate-conductance Ca^2+-activated channel expressed in T lymphocytes; and mKCa1.1 (BK, Slo1, MaxiK, Figure 3H), the large-conductance voltage- and Ca^2+-activated channel of mice. In addition, we also screened the effect of Cm39 on hKV11.1 (hERG1, Figure 3G), a voltage-gated cardiac K^+ channel, and two human voltage-gated sodium (hNaV) channels, hNaV1.4 (Figure 3K) and hNaV1.5 (Figure 3L), expressed in skeletal and cardiac muscles, respectively. These ion channels were heterologously expressed in the CHO or HEK cell lines except for KV1.3. Human peripheral T lymphocytes. They were stimulated with Phytohemagglutinin A (PHA) to increase the KV1.3 channel expression, and Ca^2+-free intracellular solution was used to avoid KCa3.1 channel activation. Appropriate depolarization protocols were used to record ionic currents in voltage-clamped cells (see Figure 3 insets and Material and Methods for details). Freshly dissolved sCm39 in extracellular solution was applied at 1 µM concentration on the cell using a custom-built micro-perfusion system at ~200 µL/min flow rate.
# (§2) Chinese hamster ovary (CHO) cells (gift from Yosef Yarden, Weizmann Institute of Science, Rehovot, Israel) were maintained by culturing in Dulbecco’s modified Eagle medium (DMEM, Gibco) supplemented with 2 mM L-glutamine, 10% FBS, 100 µg/mL streptomycin and 100 U/mL penicillin-g (Sigma-Aldrich) at a density of 0. 5−1×10^6 cells per mL in a humidified incubator at 37 °C and 5% CO2. Cells were passaged 3 times in a week following a 2–5 min incubation in 0.05% trypsin-EDTA solution at 37 °C. Cultures were used up to passage number 20. PCR-based tests were routinely used to detect mycoplasma infection, only mycoplasma-free cultures were used for experiments.
# (§3) Those plasmids which lack a fluorescent tag were co-transfected with a plasmid encoding GFP. Transfections were performed at a GFP:channel DNA molar ratio of 1:10 using the Lipofectamine 2000 kit (Invitrogen) according to the manufacturer’s protocol. […] Generally, currents were recorded 24 to 48 h post transfection.
# (§4) For the measurement of KV1.x, mKCa1.1 and NaV1.x currents the extracellular solution was composed of (in mM) 145 NaCl, 5 KCl, 2.5 CaCl2, 1 MgCl2, 10 HEPES and 5.5 glucose, pH 7.35. In the HK-150 and Na^+-free bath solution bath all Na^+ was substituted by K^+ or Choline-Cl, respectively, other ingredients remained unchanged. In the various TEA^+-containing solutions, Na^+ was substituted by tetraethylammonium-Cl in equimolar concentration (Figure 3). The bath solution for KCa2.2 and KCa3.1 consisted of (in mM) 145 L-Aspartic Na^+ salt, 5 KCl, 2.5 CaCl2, 1 MgCl2, 5.5 glucose and 10 HEPES, pH 7.4 and for KV11.1 (in mM) 140 Choline-Cl, 5 KCl, 2 MgCl2, 2 CaCl2, 10 HEPES, 20 glucose and 0.1 CdCl2, pH 7.35. The osmolarity of bath solutions was ranging between 302 to 308 mOsm/L. A total of 0.1 mg/mL bovine serum albumin (BSA, Sigma-Aldrich, Budapest, Hungary) was added to all the bath solutions before the patch-clamp assay to avoid toxin adsorption to the plastic surfaces of the perfusion system. Internal or pipette solution for recording KV1.x and mKCa1.1 currents consisted of (in mM) 140 KF, 2 MgCl2, 1 CaCl2, 11 EGTA and 10 HEPES, pH 7.22.
# hKV1.6 = assay type: cell-based, human
# Text: as §1, §2, §3, §4
# hKV1.3 = assay type: cell-based, human
# Text: as §1
# For the measurement of KV1.x, mKCa1.1 and NaV1.x currents the extracellular solution was composed of (in mM) 145 NaCl, 5 KCl, 2.5 CaCl2, 1 MgCl2, 10 HEPES and 5.5 glucose, pH 7.35. In the HK-150 and Na^+-free bath solution bath all Na^+ was substituted by K^+ or Choline-Cl, respectively, other ingredients remained unchanged. […]
# Whole-cell currents were recorded in voltage-clamped cells following standard protocols by using a Multiclamp 700B amplifier connected to a computer with Axon Digidata1440 digitizer and for data acquisition, Clampex 10.7 software was used (Molecular Devices).
# mKCa1.1 = assay type: cell-based, mice
# Text: as §1, with “rate. […]” for “rate.”
# Whole-cell currents were recorded in voltage-clamped cells following standard protocols by using a Multiclamp 700B amplifier connected to a computer with Axon Digidata1440 digitizer and for data acquisition, Clampex 10.7 software was used (Molecular Devices). […]
# KV1.2 = settings: cited from earlier work
# Text: (§5) Most of the peptides in subfamily 4 are very similar (percentage identity ranging from 78 to 97%) and share common pharmacological targets, including KV1.3, KV1.2 and KCa channels. […] Not all subfamily 4 toxins have been tested on the KV1.3 channel, but for those that were te ...
# KCa3.1 channel = settings: cited from earlier work
# Text: as §5, with “... || To date, a number of scorpion-derived peptide toxins are known to block K^+ channels with great affinity. However, these native toxins target more than one channel which compromises their therapeutic use in the management of channelopathies.” for “...”
# KV1.3 = settings: cited from earlier work
# Text: Most of the peptides in subfamily 4 are very similar (percentage identity ranging from 78 to 97%) and share common pharmacological targets, including KV1.3, KV1.2 and KCa channels. […] Not all subfamily 4 toxins have been tested on the KV1.3 channel, but for those that were te ... || Generally, scorpion toxins interact at two different regions of KV channels to modify their function. Typical functional dyad (lysine and tyrosine) bearing toxins bind to the extracellular vestibule in such a way that lysine goes deep into selectivity filter, thereby plugging the pore of the channel. Other toxins interact with the voltage-sensing domain (VSD) causing the significant change in gating of the channel.
# hKV1.2 = target: T1, hKV1.2 (Homo sapiens, UniProt P16389); experiment: Whole-cell patch-clamp, block of KV1.2 current; assay type: cell-based; settings: fully reversible blocker as positive control
# T1 construct: GFP (vector pCMV6-AC-GFP); host or cells: CHO cells, transient transfection
# T1 sequence (P16389 whole entry): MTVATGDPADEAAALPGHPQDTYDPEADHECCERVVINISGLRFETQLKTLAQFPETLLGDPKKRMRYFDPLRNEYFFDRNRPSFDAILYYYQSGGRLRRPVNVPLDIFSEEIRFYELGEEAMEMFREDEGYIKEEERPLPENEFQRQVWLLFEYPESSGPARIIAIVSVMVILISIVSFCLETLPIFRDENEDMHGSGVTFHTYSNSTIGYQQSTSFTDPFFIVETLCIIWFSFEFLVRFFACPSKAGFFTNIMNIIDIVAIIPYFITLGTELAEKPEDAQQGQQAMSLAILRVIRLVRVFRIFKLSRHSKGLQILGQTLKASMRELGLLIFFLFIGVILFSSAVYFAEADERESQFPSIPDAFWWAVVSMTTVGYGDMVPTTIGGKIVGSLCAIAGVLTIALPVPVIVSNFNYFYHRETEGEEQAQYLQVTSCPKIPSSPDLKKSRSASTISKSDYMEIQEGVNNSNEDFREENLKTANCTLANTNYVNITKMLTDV
# Text: as §1
# For comprehensive characterization of Cm39 activity on KV1.2, we determined the concentration–response of current inhibition by Cm39, the kinetic parameters of its binding and assessed the effect on voltage dependence of steady-state activation. The whole-cell KV1.2 currents were recorded in CHO cells using depolarization pulses to +50mV from −120mV holding potential (Vh) every 15 s. Since the activation kinetics of KV1.2 are highly variable, the duration of pulses was set on a cell-by-cell basis between 15–300 ms to allocate sufficient time for reaching maximum currents at the test potentials. […] The remaining current fractions (RCF = I/I0, where I0 is the peak current in the absence of the toxin, and I is the peak current at equilibrium block in the presence of sCm39 at a given concentration) were calculated and plotted as a function of toxin concentration.
# Single-exponential decay functions were fitted to the normalized peak currents in the presence of each sCm39 concentration (Figure 4C, data points in red shades) to determine the time constant for the onset of block (τon, wash-in or association time constant). The dissociation time constant for the relief from block (τoff, wash-out time constant) was obtained by fitting a single-exponential rising function to the normalized peak currents in the wash-out procedure (Figure 4C, data point in black empty circles). Assuming a simple bimolecular interaction between the toxin and the channel, time constants for the onset and recovery from the block can be stated as follows:(1) τon=1/kon×[toxin]+koff , τoff=1/koff where kon represents the second-order association rate constant, koff indicates the first-order dissociation rate constant and [toxin] is the sCm39 concentration. […] The second-order rate constant of association (kon) was determined by fitting the 1/τon data points using linear regression with koff as the y-intercept.
# [1] = system: several KV1.x channel subtypes and Ca^2+-activated channels; settings: high affinity; cited from earlier work
# Text: To date, a number of scorpion-derived peptide toxins are known to block K^+ channels with great affinity. However, these native toxins target more than one channel which compromises their therapeutic use in the management of channelopathies.
# KCa2.2 channel = settings: cited from earlier work
# Text: as §5, with “... || To date, a number of scorpion-derived peptide toxins are known to block K^+ channels with great affinity. However, these native toxins target more than one channel which compromises their therapeutic use in the management of channelopathies.” for “...”
compound,measurement,setting,value
"CC[N+](CC)(CC)CC [TEA^+, tetraethylammonium chloride, reference compound]",current response to positive control,hKV1.1,decrease in the current
same,current response to positive control,hKV1.6,decrease in the current
same,current response to positive control,hKV1.3,decrease in the current
same,current response to positive control,mKCa1.1,decrease in the current
ChTx,effect on KV1.2,KV1.2,shows effects
same,Kd,KCa3.1 channel,5 nM
same,effect on KV1.3,KV1.3,shows effects
same,current response to positive control,hKV1.2,decrease in the current
same,affinity range,[1],picomolar to nanomolar
"Leiurotoxin I: isolated from Leiurus quinquestriatus hebraeus (AFCNLRMCQLSCRSLGLLGKCIGDKCECVKH; UniProt P16341 1-31, looked up)",inhibition of KCa2.x subtypes,KCa2.2 channel; small-conductance Ca^2+-activated potassium channel KCa2.x subtypes,potent inhibitor
"MgTx (TIINVKCTSPKQCLPPCKAQFGQSAGAKCMNGKCKCYPH; UniProt P40755 1-39, looked up)",affinity range,[1],picomolar to nanomolar
"apamin (CNCKAPETALCARRCQQH-NH2; disulfide 1-11, 3-15; ends not checked; UniProt P01500 28-45, looked up)","blocking effect on KCa2 (small-conductance K^+ channel, SK)",KCa2.2 channel,picomolar range
